From the NIST ThermoML archive (doi:10.1021/acs.jced.6b00542)
± gives the expanded uncertainty stated by the source.

How the values were obtained:
[1] = for speed of sound: 100 kPa, Frequency=3 MHz, Sing-around technique in a fixed-path interferometer; for speed of sound / viscosity / mass density: Liquid; for viscosity / mass density: 102 kPa; for viscosity: Concentric cylinders viscometry; for mass density: Vibrating tube method; for surface tension liquid-gas: Pendant drop shape
[2] = xn = mol fraction of the nth substance listed; conditions: Liquid; for speed of sound: 100 kPa, Frequency=3 MHz, Sing-around technique in a fixed-path interferometer; for viscosity / mass density: 102 kPa; for viscosity: Concentric cylinders viscometry; for mass density: Vibrating tube method

CCCCCCCCCCCCCCCCC [heptadecane]
[1]
Conditions | mass density [kg/m3] | speed of sound [m/s] | viscosity [mPa·s]
303.15 K | 771.02 ± 0.13 | 1330.9 ± 1.2 | 3.25 ± 0.02
313.15 K | 764.16 ± 0.13 | 1294.5 ± 1.1 | 2.61 ± 0.01
323.15 K | 757.3 ± 0.14 | 1258.8 ± 0.9 | 2.14 ± 0.01
333.15 K | 750.45 ± 0.14 | 1223.8 ± 0.8 | 1.79 ± 0.01
343.15 K | 743.7 ± 0.23 | – | 1.52 ± 0.01
353.15 K | 736.8 ± 0.2 | – | 1.3 ± 0.01
363.15 K | 729.8 ± 0.2 | – | 1.14 ± 0.01
373.15 K | 723 ± 0.2 | – | 1 ± 0.01

CCCCCCCCCC [decane] + CCCCc1ccccc1
[2], x2 = 0
Conditions | mass density [kg/m3] | speed of sound [m/s] | viscosity [mPa·s]
293.15 K | 729.88 ± 0.17 | 1253.8 ± 1.4 | 0.922 ± 0.007
303.15 K | 722.31 ± 0.18 | 1214.5 ± 1.3 | 0.794 ± 0.007
313.15 K | 714.69 ± 0.18 | 1175.7 ± 1.2 | 0.693 ± 0.006
323.15 K | 707.02 ± 0.18 | 1137.3 ± 1.2 | 0.615 ± 0.006
333.15 K | 699.29 ± 0.18 | 1099.3 ± 1.1 | 0.545 ± 0.006
343.15 K | 691.5 ± 0.3 | – | 0.486 ± 0.006
353.15 K | 683.6 ± 0.3 | – | 0.436 ± 0.005
363.15 K | 675.6 ± 0.3 | – | 0.396 ± 0.005
373.15 K | 667.5 ± 0.3 | – | 0.362 ± 0.005

CCCCc1ccccc1 [butylbenzene] + CCCCCCCCCCCCCCCCC
[2], x1 = 1
Conditions | mass density [kg/m3] | speed of sound [m/s] | viscosity [mPa·s]
303.15 K | 852.49 ± 0.11 | 1314.9 ± 0.9 | 0.91 ± 0.007
313.15 K | 844.43 ± 0.11 | 1276.6 ± 0.9 | 0.801 ± 0.006
323.15 K | 836.34 ± 0.11 | 1238.7 ± 0.8 | 0.713 ± 0.006
333.15 K | 828.21 ± 0.12 | 1201.4 ± 0.8 | 0.636 ± 0.006
343.15 K | 819.9 ± 0.22 | – | 0.571 ± 0.006
353.15 K | 811.7 ± 0.2 | – | 0.516 ± 0.006
363.15 K | 803.4 ± 0.2 | – | 0.469 ± 0.005
373.15 K | 795 ± 0.2 | – | 0.43 ± 0.005

CCCCCCCCCCCCCC [tetradecane] + CCCCc1ccccc1
[2], x2 = 0
Conditions | mass density [kg/m3] | speed of sound [m/s] | viscosity [mPa·s]
293.15 K | 762.71 ± 0.14 | 1331.2 ± 0.9 | 2.3 ± 0.01
303.15 K | 755.65 ± 0.14 | 1293.6 ± 0.9 | 1.88 ± 0.01
313.15 K | 748.58 ± 0.15 | 1256.4 ± 0.9 | 1.56 ± 0.01
323.15 K | 741.5 ± 0.15 | 1220.1 ± 0.9 | 1.32 ± 0.01
333.15 K | 734.4 ± 0.15 | 1184.1 ± 0.9 | 1.13 ± 0.008
343.15 K | 727.5 ± 0.2 | – | 0.98 ± 0.007
353.15 K | 720.3 ± 0.2 | – | 0.858 ± 0.007
363.15 K | 713.1 ± 0.3 | – | 0.76 ± 0.006
373.15 K | 705.8 ± 0.3 | – | 0.679 ± 0.006

CCCCCCCCCCCC [dodecane]
[1]
Conditions | mass density [kg/m3] | speed of sound [m/s] | surface tension liquid-gas [mN/m] | viscosity [mPa·s]
293.15 K | 748.79 ± 0.16 | 1297.9 ± 1 | – | 1.47 ± 0.01
294.1 K | – | – | 25.1 ± 0.3 | –
303.15 K | 741.54 ± 0.16 | 1259.6 ± 1 | – | 1.24 ± 0.01
313.15 K | 734.25 ± 0.16 | 1221.9 ± 1 | – | 1.06 ± 0.01
323.15 K | 726.94 ± 0.17 | 1184.7 ± 1 | – | 0.916 ± 0.007
333.15 K | 719.59 ± 0.17 | 1148 ± 1 | – | 0.801 ± 0.007
343.15 K | 712.2 ± 0.3 | – | – | 0.706 ± 0.006
353.15 K | 704.7 ± 0.3 | – | – | 0.627 ± 0.006
363.15 K | 697.2 ± 0.3 | – | – | 0.562 ± 0.006
373.15 K | 689.6 ± 0.3 | – | – | 0.506 ± 0.006

CCCCCCCCCCCCCCCC [hexadecane] + CCCCc1ccccc1
[2], x2 = 0
Conditions | mass density [kg/m3] | speed of sound [m/s] | viscosity [mPa·s]
293.15 K | 773.52 ± 0.16 | 1357.3 ± 1.1 | 3.45 ± 0.02
303.15 K | 766.58 ± 0.17 | 1320 ± 1 | 2.74 ± 0.02
313.15 K | 759.66 ± 0.17 | 1283.4 ± 1 | 2.22 ± 0.01
323.15 K | 752.74 ± 0.17 | 1247.5 ± 1 | 1.84 ± 0.01
333.15 K | 745.82 ± 0.17 | 1212.1 ± 1 | 1.55 ± 0.01
343.15 K | 738.8 ± 0.3 | – | 1.32 ± 0.01
353.15 K | 731.9 ± 0.3 | – | 1.14 ± 0.01
363.15 K | 724.9 ± 0.3 | – | 1 ± 0.01
373.15 K | 717.8 ± 0.3 | – | 0.887 ± 0.007

CCCCCCCCCC [decane]
[1]
Conditions | mass density [kg/m3] | speed of sound [m/s] | surface tension liquid-gas [mN/m] | viscosity [mPa·s]
293.15 K | 729.88 ± 0.17 | 1253.8 ± 1.4 | – | 0.922 ± 0.007
294.6 K | – | – | 23.8 ± 0.3 | –
303.15 K | 722.31 ± 0.18 | 1214.5 ± 1.3 | – | 0.794 ± 0.007
313.15 K | 714.69 ± 0.18 | 1175.7 ± 1.2 | – | 0.693 ± 0.006
323.15 K | 707.02 ± 0.18 | 1137.3 ± 1.2 | – | 0.615 ± 0.006
333.15 K | 699.29 ± 0.18 | 1099.3 ± 1.1 | – | 0.545 ± 0.006
343.15 K | 691.5 ± 0.3 | – | – | 0.486 ± 0.006
353.15 K | 683.6 ± 0.3 | – | – | 0.436 ± 0.005
363.15 K | 675.6 ± 0.3 | – | – | 0.396 ± 0.005
373.15 K | 667.5 ± 0.3 | – | – | 0.362 ± 0.005

CCCCCCCCCCCCCCCC [hexadecane]
[1]
Conditions | mass density [kg/m3] | speed of sound [m/s] | surface tension liquid-gas [mN/m] | viscosity [mPa·s]
293.15 K | 773.52 ± 0.16 | 1357.3 ± 1.1 | – | 3.45 ± 0.02
294.8 K | – | – | 27.4 ± 0.3 | –
303.15 K | 766.58 ± 0.17 | 1320 ± 1 | – | 2.74 ± 0.02
313.15 K | 759.66 ± 0.17 | 1283.4 ± 1 | – | 2.22 ± 0.01
323.15 K | 752.74 ± 0.17 | 1247.5 ± 1 | – | 1.84 ± 0.01
333.15 K | 745.82 ± 0.17 | 1212.1 ± 1 | – | 1.55 ± 0.01
343.15 K | 738.8 ± 0.3 | – | – | 1.32 ± 0.01
353.15 K | 731.9 ± 0.3 | – | – | 1.14 ± 0.01
363.15 K | 724.9 ± 0.3 | – | – | 1 ± 0.01
373.15 K | 717.8 ± 0.3 | – | – | 0.887 ± 0.007

CCCCc1ccccc1 [butylbenzene]
[1]
Conditions | mass density [kg/m3] | speed of sound [m/s] | surface tension liquid-gas [mN/m] | viscosity [mPa·s]
293.15 K | 860.51 ± 0.11 | 1353.7 ± 0.9 | – | 1.05 ± 0.01
294.2 K | – | – | 29.1 ± 0.3 | –
303.15 K | 852.49 ± 0.11 | 1314.9 ± 0.9 | – | 0.91 ± 0.007
313.15 K | 844.43 ± 0.11 | 1276.6 ± 0.9 | – | 0.801 ± 0.006
323.15 K | 836.34 ± 0.11 | 1238.7 ± 0.8 | – | 0.713 ± 0.006
333.15 K | 828.21 ± 0.12 | 1201.4 ± 0.8 | – | 0.636 ± 0.006
343.15 K | 819.9 ± 0.2 | – | – | 0.571 ± 0.006
353.15 K | 811.7 ± 0.2 | – | – | 0.516 ± 0.006
363.15 K | 803.4 ± 0.2 | – | – | 0.469 ± 0.005
373.15 K | 795 ± 0.2 | – | – | 0.43 ± 0.005

CCCCCCCCCCCCCC [tetradecane]
[1]
Conditions | mass density [kg/m3] | speed of sound [m/s] | surface tension liquid-gas [mN/m] | viscosity [mPa·s]
293.15 K | 762.71 ± 0.14 | 1331.2 ± 0.9 | – | 2.3 ± 0.01
294.6 K | – | – | 26.2 ± 0.3 | –
303.15 K | 755.65 ± 0.14 | 1293.6 ± 0.9 | – | 1.88 ± 0.01
313.15 K | 748.58 ± 0.15 | 1256.4 ± 0.9 | – | 1.56 ± 0.01
323.15 K | 741.5 ± 0.15 | 1220.1 ± 0.9 | – | 1.32 ± 0.01
333.15 K | 734.4 ± 0.15 | 1184.1 ± 0.9 | – | 1.13 ± 0.008
343.15 K | 727.5 ± 0.2 | – | – | 0.98 ± 0.007
353.15 K | 720.3 ± 0.2 | – | – | 0.858 ± 0.007
363.15 K | 713.1 ± 0.3 | – | – | 0.76 ± 0.006
373.15 K | 705.8 ± 0.3 | – | – | 0.679 ± 0.006

CCCCCCCCCCCC [dodecane] + CCCCc1ccccc1
[2], x2 = 0
Conditions | mass density [kg/m3] | speed of sound [m/s] | viscosity [mPa·s]
293.15 K | 748.79 ± 0.16 | 1297.9 ± 1 | 1.47 ± 0.01
303.15 K | 741.54 ± 0.16 | 1259.6 ± 1 | 1.24 ± 0.01
313.15 K | 734.25 ± 0.16 | 1221.9 ± 1 | 1.06 ± 0.01
323.15 K | 726.94 ± 0.17 | 1184.7 ± 1 | 0.916 ± 0.007
333.15 K | 719.59 ± 0.17 | 1148 ± 1 | 0.801 ± 0.007
343.15 K | 712.2 ± 0.3 | – | 0.706 ± 0.006
353.15 K | 704.7 ± 0.3 | – | 0.627 ± 0.006
363.15 K | 697.2 ± 0.3 | – | 0.562 ± 0.006
373.15 K | 689.6 ± 0.3 | – | 0.506 ± 0.006
